Experimental data as given in US20240148709A1, “METHODS OF TREATING EYE PAIN AND EYE DISORDERS” (Aisa Pharma, Inc., priority 2022, published 2024).

Test system: participants with SSc-RP
Assay: Scleroderma Health Assessment Questionnaire (SHAQ), Phase 2a study Part A
Format: in vivo, human
Description: Part A—double-blind, placebo-controlled, parallel-group, dose selection, will assess the safety and efficacy of two doses of cilnidipine (10 mg and 20 mg), alone and in combination with tadalafil. A total of 36 participants will be randomized to one of six prespecified treatment arms. Refer to FIG. 1 for treatment arms in Part A of the study. Dosing last for 12 (±2) days in which participants will self-administer daily doses of assigned treatment in the morning. Each participant will take one capsule and one tablet to blind the active therapy being received.
The standard, validated, patient reported outcome measures tool for SSc patients, the SHAQ, will be collected at the time points specified in the study schedules (FIG. 2 and FIGS. 3A and 3B) to assess the participant's quality of life. The SHAQ includes a Raynaud's VAS that will also be reported separately.
Results: Patients in the study were administered the Scleroderma Health Assessment Questionnaire (SHAQ) at the time of study entry and during clinic visits following the treatment period. The study is a two-part, parallel arm design, prospective, double-blind, randomized study conducted in Australia (Flinders Medical Center). 27 patients were randomized into the first phase of the study, following which a DSMB meeting was held, which reviewed data on the primary study endpoint and key Raynaud's secondary endpoints. Data on the SHAQ was not available for the DSMB to review. The mITT population, in which any data was available post treatment was 24 patients was the analysis population for this first part of the study. The second part (i.e., part B) of the study will randomize 36 patients in a double blind, randomized, prospective, placebo controlled, crossover study. In the first part (i.e., Part A) of the study for which data is presented, patients were randomized into 6 groups, cilnidipine at two doses (10 and 20 mg) alone and in combination with tadalafil 5 mg, tadalafil 5 mg alone, and placebo. […] The DSMB recommended that the study proceed into its double blind prospective cross overpowered second phase and compare cilnidipine 20 mg alone to placebo.

[1] = cilnidipine 10 mg and/or tadalafil 5 mg arms
[2] = cilnidipine 20 mg arms (alone or + tadalafil 5 mg)

COCCOC(=O)C1=C(C)NC(C)=C(C(=O)OC/C=C/c2ccccc2)C1c1cccc([N+](=O)[O-])c1 (stereo not shown) [Cilnidipine, cilnidipine]
SHAQ Visual Analog Scale-Raynaud's, In Clinic Visit (Day 12), Mean (SD) [1]: 1.925 (1.9207) | SHAQ Visual Analog Scale-Raynaud's, In Clinic Visit (Day 12), Median [1]: 1.700 | SHAQ Visual Analog Scale-Raynaud's, In Clinic Visit (Day 12), Min [1]: 0.00 | SHAQ Visual Analog Scale-Raynaud's, In Clinic Visit (Day 12), Q1 [1]: 0.400 | SHAQ Visual Analog Scale-Raynaud's, In Clinic Visit (Day 12), Q3 [1]: 3.450 | SHAQ Visual Analog Scale-Raynaud's, Percent Change from Baseline, Max [1]: 136.4% | SHAQ Visual Analog Scale-Raynaud's, Percent Change from Baseline, Mean (SD) [1]: 11.36 (118.770) % | SHAQ Visual Analog Scale-Raynaud's, Percent Change from Baseline, Median [1]: −2.27% | SHAQ Visual Analog Scale-Raynaud's, Percent Change from Baseline, Min [1]: −100.0% | SHAQ Visual Analog Scale-Raynaud's, Percent Change from Baseline, Q1 [1]: −100.00% | SHAQ alternative disability index, Change from Baseline, Max [1]: 0.38 | SHAQ alternative disability index, Change from Baseline, Mean (SD) [1]: 0.063 (0.2165) | SHAQ alternative disability index, Change from Baseline, Median [1]: 0.000 | SHAQ alternative disability index, Change from Baseline, Min [1]: −0.13 | SHAQ alternative disability index, Change from Baseline, Q1 [1]: −0.063 | SHAQ alternative disability index, Change from Baseline, Q3 [1]: 0.188 | SHAQ alternative disability index, In Clinic Visit (Day 12), Max [1]: 1.25 | SHAQ alternative disability index, In Clinic Visit (Day 12), Mean (SD) [1]: 0.563 (0.6575) | SHAQ alternative disability index, In Clinic Visit (Day 12), Median [1]: 0.500 | SHAQ alternative disability index, In Clinic Visit (Day 12), Min [1]: 0.00 | SHAQ alternative disability index, In Clinic Visit (Day 12), Q1 [1]: 0.000 | SHAQ alternative disability index, In Clinic Visit (Day 12), Q3 [1]: 1.125 | SHAQ alternative disability index, Percent Change from Baseline, Max [1]: 42.9% | SHAQ alternative disability index, Percent Change from Baseline, Mean (SD) [1]: 15.87 (38.161) % | SHAQ alternative disability index, Percent Change from Baseline, Median [1]: 15.87% | SHAQ alternative disability index, Percent Change from Baseline, Min [1]: −11.1% | SHAQ alternative disability index, Percent Change from Baseline, Q1 [1]: −11.11% | SHAQ alternative disability index, Percent Change from Baseline, Q3 [1]: 42.86% | SHAQ Finger Ulcers, Change from Baseline, Max [2]: 0.40 | SHAQ Finger Ulcers, Change from Baseline, Mean (SD) [2]: −0.933 (1.9732) | SHAQ Finger Ulcers, Change from Baseline, Median [2]: 0.000 | SHAQ Finger Ulcers, Change from Baseline, Min [2]: −3.20 | SHAQ Finger Ulcers, Change from Baseline, Q1 [2]: −3.200 | SHAQ Finger Ulcers, Change from Baseline, Q3 [2]: 0.400 | SHAQ Finger Ulcers, In Clinic Visit (Day 12), Max [2]: 1.90 | SHAQ Finger Ulcers, In Clinic Visit (Day 12), Mean (SD) [2]: 0.867 (0.9609) | SHAQ Finger Ulcers, In Clinic Visit (Day 12), Median [2]: 0.700 | SHAQ Finger Ulcers, In Clinic Visit (Day 12), Min [2]: 0.00 | SHAQ Finger Ulcers, In Clinic Visit (Day 12), Q1 [2]: 0.000 | SHAQ Finger Ulcers, In Clinic Visit (Day 12), Q3 [2]: 1.900 | SHAQ Finger Ulcers, Percent Change from Baseline, Max [2]: 133.3% | SHAQ Finger Ulcers, Percent Change from Baseline, Mean (SD) [2]: 35.29 (138.648) % | SHAQ Finger Ulcers, Percent Change from Baseline, Median [2]: 35.29% | SHAQ Finger Ulcers, Percent Change from Baseline, Min [2]: −62.7% | SHAQ Finger Ulcers, Percent Change from Baseline, Q1 [2]: −62.75% | SHAQ Finger Ulcers, Percent Change from Baseline, Q3 [2]: 133.33% | SHAQ Overall Change in Severity, Change from Baseline, Max [2]: −1.50 | SHAQ Overall Change in Severity, Change from Baseline, Median [2]: −1.600 | SHAQ Overall Change in Severity, Change from Baseline, Min [2]: −1.80 | SHAQ Overall Change in Severity, Change from Baseline, Q1 [2]: −1.800 | SHAQ Overall Change in Severity, Change from Baseline, Q3 [2]: −1.500 | SHAQ Overall Change in Severity, In Clinic Visit (Day 12), Max [2]: 1.40 | SHAQ Overall Change in Severity, In Clinic Visit (Day 12), Mean (SD) [2]: 1.033 (0.4726) | SHAQ Overall Change in Severity, In Clinic Visit (Day 12), Median [2]: 1.200 | SHAQ Overall Change in Severity, In Clinic Visit (Day 12), Min [2]: 0.50 | SHAQ Overall Change in Severity, In Clinic Visit (Day 12), Q1 [2]: 0.500 | SHAQ Overall Change in Severity, In Clinic Visit (Day 12), Q3 [2]: 1.400 | SHAQ Overall Change in Severity, Percent Change from Baseline, Max [2]: −51.7% | SHAQ Overall Change in Severity, Percent Change from Baseline, Mean (SD) [2]: −62.64 (12.445) % | SHAQ Overall Change in Severity, Percent Change from Baseline, Median [2]: −60.00% | SHAQ Overall Change in Severity, Percent Change from Baseline, Min [2]: −76.2% | SHAQ Overall Change in Severity, Percent Change from Baseline, Q1 [2]: −76.19% | SHAQ Overall Change in Severity, Percent Change from Baseline, Q3 [2]: −51.72% | SHAQ Standard disability index, Change from Baseline, Max [2]: 0.00 | SHAQ Standard disability index, Change from Baseline, Mean (SD) [2]: −0.125 (0.1250) | SHAQ Standard disability index, Change from Baseline, Median [2]: −0.125 | SHAQ Standard disability index, Change from Baseline, Min [2]: −0.25 | SHAQ Standard disability index, Change from Baseline, Q1 [2]: −0.250 | SHAQ Standard disability index, Change from Baseline, Q3 [2]: 0.000 | SHAQ Standard disability index, In Clinic Visit (Day 12), Max [2]: 0.25 | SHAQ Standard disability index, In Clinic Visit (Day 12), Mean (SD) [2]: 0.125 (0.1250) | SHAQ Standard disability index, In Clinic Visit (Day 12), Median [2]: 0.125 | SHAQ Standard disability index, In Clinic Visit (Day 12), Min [2]: 0.00 | SHAQ Standard disability index, In Clinic Visit (Day 12), Q1 [2]: 0.000 | SHAQ Standard disability index, In Clinic Visit (Day 12), Q3 [2]: 0.250 | SHAQ Standard disability index, Percent Change from Baseline, Max [2]: −33.3% | SHAQ Standard disability index, Percent Change from Baseline, Mean (SD) [2]: −50.00 (23.570) % | SHAQ Standard disability index, Percent Change from Baseline, Median [2]: −50.00% | SHAQ Standard disability index, Percent Change from Baseline, Min [2]: −66.7% | SHAQ Standard disability index, Percent Change from Baseline, Q1 [2]: −66.67% | SHAQ Standard disability index, Percent Change from Baseline, Q3 [2]: −33.33% | SHAQ Visual Analog Scale-Breathing Problems, Change from Baseline, Max [2]: 0.30 | SHAQ Visual Analog Scale-Breathing Problems, Change from Baseline, Median [2]: −0.800 | SHAQ Visual Analog Scale-Breathing Problems, Change from Baseline, Min [2]: −2.00 | SHAQ Visual Analog Scale-Breathing Problems, Change from Baseline, Q1 [2]: −2.000
